Among the data in ChEMBL document CHEMBL3507680, “University of Dundee, Gates Library screen for HepG2 cell viability” are cytotoxicity values, retold here.

The series is described as follows: Human HepG2 cell viability assay in 384 well format. To be noted: HepG2 cells, read-out: Inhibition. In kind it is toxicity, cell-based. Further details: dose 125 nL, time 70.5 hour; concentration not given beside the values.
On to `COc1ccc(F)cc1C(=O)C1CCCN(Cc2cnc(C)s2)C1` (stereo unspecified), for which the cytotoxicity at 70.5 h was -11.8%.
The result for `O=C(c1cnc(-c2cccnc2)nc1)N1CCC(c2ccncc2)CC1` reads -5.85%; that for `CCc1ncc(-c2nccn2-c2cccc(CC(=O)O)c2)cn1`, -11.5%; that for `COc1ccc2nc(CNC(=O)c3cc(C(C)C)no3)[nH]c2c1`, 39.1%.
Consider `O=C1N(Cc2ccc(F)c(F)c2)CCCC12CCN(C1CCCCC1)C2` (stereo unspecified), for which the cytotoxicity at 70.5 h is 1.47%.
The figure for `CCn1c(CC2CCN(C(=O)c3cc(C(C)C)nn3C)CC2)n[nH]c1=O` is 2.37%.
The result for `NC(=O)c1cc2c(nc1CC1CCCCO1)CCC2` (stereo unspecified) reads -2.08%; that for `O=C(NCc1nncn1C1CCCCC1)C1CNCCO1` (stereo unspecified), -6.16%; that for `CCc1cn[nH]c1C1CCCN(C(=O)c2cnc(NC(C)C)nc2)C1` (stereo unspecified), -5.16%.
The figure for `COCC(C)NCc1ccc2[nH]c(C)c(C)c2c1` (stereo unspecified) is -7.86%; for `Cc1nc(-c2cccnc2)ncc1C(=O)N1CCCC(N(C)C)CC1` (stereo unspecified) it is -20%.
For `CCC[C@H]1CN(S(=O)(=O)c2c(C)noc2C)C[C@@H]1N`, the cytotoxicity at 70.5 h is -3.53%.
The result for `CC(C)Cc1cn(C2CCN(C(C)CCn3cccn3)CC2)nn1` (stereo unspecified) reads -11.6%.
On to `CO[C@H]1C[C@@H](O)C12CCN(C(=O)NCc1ccco1)CC2`, for which the cytotoxicity at 70.5 h was 17.8%.
Regarding `O=C1CCC2(CCCN(C(=O)C3CCCC3)C2)CN1CCc1c[nH]cn1` (stereo unspecified), the cytotoxicity at 70.5 h is -2.97%.
In the case of `O=C(NCc1csc2ccc(Cl)cc12)c1cc2n(n1)CCNC2`, the cytotoxicity at 70.5 h stood at 3.64%.
Turning to `O=C(CN1CCCCC1)NCc1cccnc1-n1cnc2ccccc21`, the cytotoxicity at 70.5 h is -4.51%.
The result for `CCC(Nc1cccc(OC)c1)C(=O)N(CCO)Cc1nccs1` (stereo unspecified) reads -3.06%; that for `NC(=O)c1cc2c(nc1-c1ccc3c(c1)OCCO3)CCC2`, -9.8%.
The result for `Cc1ccc(OCc2occc2C(=O)N2CCCCC(N)C2)cc1` (stereo unspecified) reads -2.2%.
The result for `CN(C)C(=O)CN1C[C@@H]2CC[C@H](C1)N(Cc1ccccc1C#N)C2` reads -11%; that for `CC(C)Cc1cc(CN2C[C@H]3CC[C@@H]2CN(Cc2cscn2)C3)n[nH]1`, 12.5%.
As for `CC(C)CC(C)NC1CCN(c2ccc(-c3cscn3)cc2)CC1` (stereo unspecified), the cytotoxicity at 70.5 h was -15.5%.
The result for `COc1cccc(-n2cc(-c3ccnc(NC(CO)C(C)C)n3)cn2)c1` (stereo unspecified) reads 13.2%.
For the molecule `CCn1cc(CN2CCC3(CC2)c2ccccc2CC3O)cn1` (stereo unspecified), the cytotoxicity at 70.5 h is -8.46%.
The figure for `CCCc1cc(C(=O)NC(COC)c2ccnn2C)no1` (stereo unspecified) is 14.9%.
For the molecule `CN(C)CC1(O)CCN(C(=O)c2cnc(-c3cccnc3)nc2)C1` (stereo unspecified), the cytotoxicity at 70.5 h is 3.5%.
The figure for `O=C(Cn1cccn1)N1CCc2[nH]nc(-c3ccc4c(c3)OCO4)c2C1` is -7.87%; for `O=C(O)[C@@H]1CN(CC(=O)N2CCCCCC2)C[C@H]1c1ccc(F)cc1` it is -5.12%; for `Cc1ncc(CO)c(CN2CCCC2c2nc3c(C)cccc3[nH]2)c1O` (stereo unspecified) it is -0.268%.
The figure for `Cc1cc(C)cc(CN2CCN(Cc3ccc4nonc4c3)CC2=O)c1` is -0.612%.
Take `O=C(c1ccc(-c2cccc3c2CCNC3)o1)N1CCCCC1`: the cytotoxicity at 70.5 h is -3.94%.
The result for `O=C(Cc1ccccc1)C1CCCN(Cc2cncn2C2CCCC2)C1` (stereo unspecified) reads -7.77%; that for `Cc1ccc(NC2(C(=O)N3CCn4cncc4C3)CCCCC2)cc1C`, -12.1%; that for `Cc1ncsc1CCN(C)C(=O)CN1CC2(CCNCC2)OC1=O`, 17.2%.
As to `COc1cccc2c1OCC(C(=O)NCCn1nc(C)c(Cl)c1C)C2` (stereo unspecified), the cytotoxicity at 70.5 h is -5.88%.
The result for `COc1ccc(N2CCN(C(=O)CCc3n[nH]c(C)n3)CC2=O)cc1` reads 15.6%.
In the case of `CCc1cnc(C)nc1NCCNc1nc(C)cc(=O)[nH]1`, the cytotoxicity at 70.5 h came out at 0.367%.
The figure for `COc1ccccc1Oc1ncccc1CNC(=O)[C@H](N)CC(C)(C)C` is -5.62%; for `C[C@@H]1CCC[C@H](C)N1CC(=O)N1CCc2[nH]c(-c3ccccc3)nc2C1` it is 27%.
The result for `CCc1nccc(CN2CCC(CNC(=O)[C@H]3CC[C@H](C)CC3)C2)n1` (stereo partly specified) reads 27.6%; that for `CO[C@@]1(C)C[C@@H](O)C12CCN(C(=O)CCn1c(C)cccc1=O)CC2`, -4.42%.
On to `Cn1ccnc1-c1cn(CCCc2csc(N)n2)nn1`, for which the cytotoxicity at 70.5 h is -15.7%.
The result for `CCc1cc(N2CCN3CCCCC3C2)n2nccc2n1` (stereo unspecified) reads -8.87%; that for `CN1[C@H]2CC[C@@H]1CN(C(=O)c1ccc(-c3ccccc3)[nH]1)CC2`, -2.64%; that for `Cc1cnccc1CN1CCN(C)C2(CCC(=O)N(CC3CC3)CC2)C1` (stereo unspecified), -1.45%.
The figure for `COCCN(C)C[C@@H]1CN(C(=O)c2cccc(Cl)c2)C[C@@H]1CO` is -13.7%; for `Cc1cccc2nc(-c3nc4c([nH]3)CCCNC4=O)cn12` it is 16%; for `O=C(c1ccc(Cl)cc1)N1CCC2(CC1)C(=O)Nc1ccccc12` it is 14.3%.
The result for `O=C(N1CCCC1)N1CCC(Nc2ccncn2)CC1` reads -3.32%; that for `COc1ccc(/C=C/CN2CCC3(CC2)CN(C)C(=O)O3)cc1`, -6.12%; that for `COc1ccc2c(C)nc(N3C[C@@H](C)O[C@@H](C)C3)nc2c1`, -16.1%.
In the case of `CC(=O)NCCNc1nc(-c2ccccn2)nc2c1c(C)nn2C`, the cytotoxicity at 70.5 h came to 1.86%.
The result for `CN1CCC2(CCCN(S(=O)(=O)c3ccc(-c4cnco4)s3)C2)C1` (stereo unspecified) reads -6.76%; that for `CCn1cc(CN2C[C@H]3CC[C@@H]2CN(C(=O)C2CCC2)C3)cn1`, -6.91%; that for `COCCn1ccnc1C1CCN(C(=O)C(O)c2ccc(F)cc2)CC1` (stereo unspecified), -5.34%.
As to `COc1cccn(CC(=O)N(C)CCC2CCOCC2)c1=O`, the cytotoxicity at 70.5 h came to 25%.
The figure for `O=C(NCCCO)c1cnc(-c2ccccc2)nc1O` is -2.27%; for `O=C(Nc1ccc2occc2c1)N1CCCC(O)(CO)CC1` (stereo unspecified) it is -1.52%.
The figure for `C=C(C)COc1cccc(C(=O)NC(C)c2nnn[nH]2)c1` (stereo unspecified) is 18.4%.
The result for `COc1ccc(-c2nc(CN3CCCC(OC)C3)c(C)o2)c(F)c1` (stereo unspecified) reads 10.8%.
For `NC1CCCc2nc(-c3ccccc3)ncc21` (stereo unspecified), the cytotoxicity at 70.5 h is -8.86%.
Turning to `CCCOCCn1ncc(N2CCCC2)cc1=O`, the cytotoxicity at 70.5 h was -1.75%.
The figure for `COc1cc(-c2nc(CN(CCO)CCO)c(C)o2)ccc1F` is 2.15%; for `C[C@@H]1CN(CCOCc2ccccc2)CC[C@@]1(O)C1CCC1` it is 37.7%.
`Cc1ccsc1[C@@H]1CCN(C(=O)c2ccc(-c3cc[nH]n3)cc2)C[C@H]1O`: the cytotoxicity at 70.5 h was -10.8%.
The figure for `Cc1nc(CN2CCCC(Cn3cc(CCO)nn3)C2)c2ccccn12` (stereo unspecified) is -5.43%; for `O=C(COc1ccccc1O)N1CCOC(C(F)(F)F)C1` (stereo unspecified) it is 17.8%; for `Cn1ncc2c(NC3CCSC3)nc(-c3ccncc3)nc21` (stereo unspecified) it is 3.97%.
The figure for `Cc1n[nH]c(C)c1CCNC(=O)Nc1ccc2c(c1)COC2` is -19%; for `Cc1ccc(-n2cccn2)cc1S(=O)(=O)N1C[C@H](C2CC2)[C@@H](N)C1` it is 11.6%.
The figure for `O=c1[nH]cnc2c1CCN(S(=O)(=O)c1ccc(Cl)cc1)C2` is -11.8%.
For `CCc1ccc(CN2CCNC(C(=O)N3CCN(C)CC3)C2)nc1` (stereo unspecified), the cytotoxicity at 70.5 h is -0.217%.
The figure for `Cc1ncsc1CCCNC(=O)C1CC2(CCNCC2)CN1C` (stereo unspecified) is 13%; for `CC(C)[C@@H](C)NC1CCN(c2ccc(-n3ccnc3)cc2)CC1` it is -12.5%; for `C=C(C)COc1cccc(C(=O)N(CC)Cc2nc(COC)no2)c1` it is -7.82%.
Turning to `COc1cccc(CC(=O)N2CCC(Cc3nnc(SC)n3C)CC2)c1`, the cytotoxicity at 70.5 h is -23.6%.
The result for `CCCn1ncnc1C(C)NC(=O)C1CCN(CC(N)=O)CC1` (stereo unspecified) reads -6.92%.
The result for `CN1C[C@H]2CNC[C@@]2(C(=O)NC2CCN(c3ncccc3C#N)CC2)C1` reads 1.46%; that for `CCOCc1nc2c(c(N(C)Cc3nonc3C)n1)CCNCC2`, -11.4%; that for `Nc1nc2c(c(N3CCC(CCn4cccn4)CC3)n1)CCNCC2`, -5.53%.
The figure for `Cc1ncc2c(c1CNC(=O)C1(c3ccc(F)cc3)CC1)CCNC2` is -5.4%; for `O=C(c1cc(-n2cccn2)ccc1Cl)N1CCC(N2CCCC2=O)CC1` it is -9.31%.
With `CNc1ncc(CN(C)C(=O)c2cccc(-n3cnnc3)c2)cn1`, the cytotoxicity at 70.5 h is 11.7%.
The result for `CC(C)c1ccc(CC(=O)N2CCCC3(CN(C)C(=O)O3)C2)cc1` (stereo unspecified) reads 22.5%; that for `CCc1ccc(CN(C)C(=O)c2ccc(CSc3nnc[nH]3)o2)nc1`, -11.2%; that for `CC(C)C1CN(c2ncccc2Cl)CCC(=O)N1Cc1ccc(F)cc1` (stereo unspecified), 4.1%.
As for `CN1CCN(Cc2noc(CC3CCc4ccccc43)n2)CC1` (stereo unspecified), the cytotoxicity at 70.5 h is -7.61%.
As for `O=C(c1ccccn1)N1C[C@@H]2CC[C@H](C1)N(C(=O)c1ccsc1)C2`, the cytotoxicity at 70.5 h was 26.5%.
The result for `Cc1[nH]ccc1C(=O)N1CCCC(c2ccc(C(=O)O)cc2)C1` (stereo unspecified) reads -22.6%; that for `O=C(N[C@@H]1CCCNC1)C1(Oc2ccc(Cl)cc2)CCNCC1`, 13.1%; that for `O=C(O)[C@@H]1CN(CC2CCC2)C[C@H]1c1ccc(F)cc1`, -7.16%.
For `Cc1nn(C)c2nc(N(C)CCN(C)C)sc12`, the cytotoxicity at 70.5 h was -9.29%.
The figure for `CCc1cc(C(=O)N2CCC3(CCCN(CC4CC4)C3=O)C2)cs1` (stereo unspecified) is 6.71%; for `Cc1c[nH]c(C(=O)N2CCCC2c2ccc(C(=O)N3CCSCC3)s2)n1` (stereo unspecified) it is -11.4%; for `CCC(OC)C(=O)NCc1cc2n(n1)CCCN(C1CCCCC1)C2` (stereo unspecified) it is -9.86%.
